Entries after “also recorded” stand apart in the source; their conditions may differ.
How the values were obtained:
[1] = molecular target: T1, methyltransferase activity of METTL16 MTD toward MAT2A-hp1 (Homo sapiens, UniProt Q86W50); assay: In vitro methylation assay (MTase Glo); format: biochemical; conditions: for inhibition of the methyltransferase activity of METTL16 MTD, in words: RNA substrate MAT2A-hp1
T1 construct: METTL16 MTD (1–291) was subcloned to pOPINB plasmid; His tag followed by HRV 3C cleavage site (N, cleaved yes); made in house; host or cells: E. coli Rosetta (DE3)
T1 sequence (Q86W50 1-291): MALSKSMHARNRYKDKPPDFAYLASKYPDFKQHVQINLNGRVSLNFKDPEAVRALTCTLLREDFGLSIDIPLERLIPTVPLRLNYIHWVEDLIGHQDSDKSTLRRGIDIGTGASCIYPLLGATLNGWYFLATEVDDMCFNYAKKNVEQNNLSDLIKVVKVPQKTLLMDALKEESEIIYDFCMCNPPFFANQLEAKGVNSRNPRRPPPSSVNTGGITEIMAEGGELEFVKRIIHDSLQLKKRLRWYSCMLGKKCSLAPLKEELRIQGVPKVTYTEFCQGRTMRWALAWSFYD
Experimental: Next, we evaluated the inhibition of the METTL16 methylation using the MTase Glo assay kit (Promega) measuring the methyltransferase activity based on the formation of the methylation product S-adenosyl homocysteine, which was converted to ADP by the MTase-Glo reagent to trigger a subsequent luciferase reaction (Figure 5E).
The methyltransferase activity of METTL16 MTD was measured using an MTase Glo kit (Promega V7601) following the manufacturer’s instructions. The reaction was carried out in white 384-well plates (Corning #3824), with a total methyltransferase reaction volume of 8 μL, and the final concentrations of METTL16 MTD, MAT2A-hp1, and SAM were 1, 1, and 10 μM, respectively, and 1% of DMSO was used as a control. […] To use SAM at a different final concentration, the concentration of SAM was adjusted accordingly in a 2× substrate solution.

[2] = tested on: total m^6A level in MDA-MB-231 cells; assay: Total RNA m6A level by dot blot, MDA-MB-231; format: cell-based, human; conditions: 50 μM, 24 h, 45 potassium salt used
Experimental: (§1) MDA-MB-231 cells and A549 cells were seeded into 6-well plates at 70% confluency and cultured overnight. Afterward they were treated with compound 45 potassium salt for 24 h. After the compound treatment, the cell culture medium was discarded and cells were washed with DPBS three times. The total RNA was then purified using RNeasy Mini Kit (Qiagen 74106) following the manufacturer’s protocol.
(§2) Concentrations of the total RNA were measured by NanoDrop and each sample was calibrated to the same concentration using RNase-free water. RNA samples were heated at 95 °C for 3 min and immediately chilled on ice to disrupt the secondary structures. The total RNA (1 μg) was dropped onto a positively charged nylon membrane (Invitrogen, AM10102). The membrane with RNA side up was immediately transferred to the UVP Cross-linker (Analytik Jena) with […] bulb and cross-linked under the UV light for 5 min two times, then the membrane was washed in TBST (1xTBS with 0.1% Tween 20) for 10 min at room temperature and blocked with 5% skimmed milk in TBST for 1 h at room temperature. The membrane was incubated with the anti-m^6A antibody (Synaptic systems 202003, 1 μg/mL) overnight at 4 °C. […] The membrane was further washed with TBST and detected with the Amersham ECL Prime Western Blotting Detection Reagent. […]

[3] = tested on: total RNA m^6A level in A549 cells; assay: Total RNA m6A level by dot blot, A549; format: cell-based, human; conditions: 50 μM, 24 h, 45 potassium salt used
Experimental: as §1, §2

[4] = tested on: MAT2A mRNA splicing in A549 cells; assay: MAT2A splicing by RT-qPCR, A549; format: cell-based, human; conditions: 50 μM, 24 h, 45 potassium salt used
Experimental: as §1
The reverse transcription was performed by using High-Capacity cDNA Reverse Transcription Kits (Thermo Fisher 4368814) with 500 ng of total RNA. qPCR was performed using PowerUp SYBR Green Master Mix (Thermo Fisher, A25742) with a 10 μL volume. The cycling was performed using Bio-Rad CFX96 Real-Time PCR Detection System following the standard cycling mode (primer Tm ≥ 60 °C) on the manufacturer’s protocol. The p value was calculated using GraphPad Prism software’s one-way ANOVA analysis.
Figure S10. Cellular evaluation of selected METTL16 inhibitors. (A)Suppression on cell viability in A549 cells.
Data are shown as mean ± SEM, n=3. (B) Suppression on cell viability in HCT116 cells. Data are shown as mean ± SEM, n=3. (C) Spliced MAT2A in A549 cells increased after treated 24 h with indicated dose of 45. Data are shown as mean ± SEM, n=4. **P<0.01, ns P>0.05. (D) Total RNA m 6A level in A549 cells after treated 24 h with 45. 45 potassium salt was used for MAT2A splicing and total RNA m 6A level evaluation. […]

[5] = molecular target: T2, METTL16 (1-291)–FAM-MAT2A-hp1 RNA (Homo sapiens, UniProt Q86W50); assay: FP assay after incubating SAM with METTL16; format: binding; conditions: SAM incubated with METTL16 before the FP assay
T2 construct: METTL16 MTD (1–291) was subcloned to pOPINB plasmid; His tag followed by HRV 3C cleavage site (N, cleaved yes); made in house; host or cells: E. coli Rosetta (DE3)
T2 sequence (Q86W50 1-291): T1 sequence (Q86W50 1-291)

METTL16 MTD = molecular target: T3, METTL16 MTD (Homo sapiens, UniProt Q86W50); assay: Michaelis–Menten kinetics study, in vitro methylation assay at different SAM concentrations; format: biochemical; conditions: SAM from 75 µM, two-fold dilution
T3 construct: METTL16 MTD (1–291) was subcloned to pOPINB plasmid; His tag followed by HRV 3C cleavage site (N, cleaved yes); made in house; host or cells: E. coli Rosetta (DE3)
T3 sequence (Q86W50 1-291): T1 sequence (Q86W50 1-291)

METTL16 MTD (1-291) = molecular target: T4, METTL16 MTD (1-291) (Homo sapiens, UniProt Q86W50); assay: Isothermal titration calorimetry (ITC); format: binding; conditions: 700 μM METTL16 (1-291) titrated into 50 μM compound, 25 °C
T4 construct: METTL16 MTD (1–291) was subcloned to pOPINB plasmid; His tag followed by HRV 3C cleavage site (N, cleaved yes); made in house; host or cells: E. coli Rosetta (DE3)
T4 sequence (Q86W50 1-291): T1 sequence (Q86W50 1-291)
Experimental: ITC was performed by using the MicroCal PEAQ-ITC system (Malvern) at 25 °C. METTL16 MTD protein was directly used after purification. 700 μM protein in SEC buffer (20 mM pH 7.5, 200 mM NaCl, 0.5 mM TCEP,2% v/v glycerol) supplemented with 0.5% DMSO were loaded to the syringe, 50 μM compound in SEC buffer (final 0.5%DMSO) was loaded to the cell, both samples were adjusted to 25 °C and degassed before loading. The experiment was carried out using the reference power of 10, with 19 injections. Data were analyzed using the MicroCal PEAQ-ITC Analysis Software.
Figure S5. Compound Ia as a negative control for DSF assay ,T m values of tested compounds and ITC result of […]
47. […] Data are shown as mean ± SEM, n=4. (B) EMSA assay result of compound Ia. (C) Melting curve of METTL16 in the DSF assay treated with different concentrations of Ia. Data are shown as mean ± SD, n=2. (D) T m values of DMSO control and compound Ia, 27,45,46, and 47, assay was conducted with two biological repeats in duplicate. Data are shown as mean ± SEM, n=4. (E) ITC validation of compound 47, using 700 μM METTL16 (1-291) protein to titrate 50 μM compound 47.
(1 picture or pasted object on this page, not shown here)

Compound | inhibition of the methyltransferase activity of METTL16 MTD, in words [1] | total m^6A RNA level, in words [2] | total m^6A RNA level, in words [3] | MAT2A splicing, in words [4] | IC50 under different SAM concentrations (FP assay), in words [5] | inhibition mode with SAM (Michaelis–Menten kinetics) (METTL16 MTD) | inhibition at 50 µM ([1]; at 50 μM, 1 μM METTL16 MTD, 1 μM MAT2A-hp1, 10 μM SAM) [%] | Kd (METTL16 MTD (1-291)) [µM]
CN1C(=O)C(=C2SC(NS(=O)(=O)c3ccc(C(=O)O)cc3)=NC2=O)c2cc(Br)ccc21 [Compound 45] | dose-dependently inhibited | increased the total m^6A mRNA levels | increased the total m^6A mRNA levels | promoted MAT2A splicing | remained |  |  | 
O=C1N=C(NS(=O)(=O)c2ccc(C(=O)O)cc2)SC1=C1C(=O)Nc2ccc(Br)cc21 [Compound 47] | dose-dependently inhibited; also recorded: potent inhibitory activity |  |  |  | remained | noncompetitive inhibition mode with SAM | > 50 | 5.12
